Measured values taken from patent publication US10517889B2, “Modulators of SMAD7 expression” (Ionis Pharmaceuticals, Inc., priority 2017, dated 2019).

What was measured:
[1] = system: mouse Smad7 mRNA; assay: Pharmacology: mouse Smad7 mRNA expression in liver, kidney, duodenum, ileum and colon after subcutaneous administration in CD-1 mice (Example 6); assay type: in vivo; details: 50 mg/kg subcutaneous twice weekly for 7 weeks, normalized to GAPDH
In short: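 Male CD-1 mice, 8-9 weeks old, got 50 mg/kg oligonucleotide subcutaneously twice weekly (100 mg/kg/week) for 7 weeks, with PBS controls; n=4 per group. At necropsy, Smad7 mRNA in liver, kidney, duodenum, ileum and colon was measured by RT-PCR (probe set HTS7555), normalized to GAPDH; one-way ANOVA with Dunnett's test.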

[2] = system: human peripheral blood mononuclear cells (PBMCs); assay: Human PBMC activation assay, cytokine levels (IL-10, IL-6, MCP-1, TNF-α) in supernatant after 24 hours (Example 9); details: human PBMC supernatant after 24 hours
Method: Ionis SMAD7 oligonucleotides were tested in an in vitro assay for potential immunostimulatory properties in an in vitro human peripheral blood mononuclear cell (PBMC) activation assay.
Blood samples were collected from healthy human volunteers in heparinized vials and mixed well. Human PBMCs were isolated by gradient centrifugation using Ficoll-Histopaque. The cells were washed, counted and resuspended in medium. The PBMCs were plated in a 24-well culture plate and various concentrations of oligonucleotides were added to the media. An oligonucleotide historically known to promote an inflammatory response was used as a positive control, whereas an oligonucleotide known not to be pro-inflammatory was used as a negative control. […] The supernatants were collected after 24 hours and analyzed for cytokine levels using MSD platform.

[3] = Blood chemistry markers after oral gavage in CD-1 mice (Example 7); assay type: in vivo; details: 500 mg/kg oral gavage once daily for 4 weeks, day 30
Method: The objective of this study was to evaluate the tolerability and pharmacodynamics of select Ionis human SMAD7 antisense oligonucleotides in CD-1 mice following 4 weeks of treatment. The mice were administered oligonucleotides by oral gavage.
(§1) Groups of 7-8 week old male CD-1 mice were given an oral gavage dose once daily for 4 weeks of 500 mg/kg of Ionis SMAD7 oligonucleotides. Each group contained 8 mice. One group of male CD-1 mice was administered saline by oral gavage daily.
Levels of transaminases, albumin, and BUN were measured using a Toshiba 200FR NEO chemistry analyzer (Toshiba Co., Japan).

[4] = Body and organ weights after subcutaneous administration in beagle dogs (Example 8); assay type: in vivo; details: 30 mg/kg subcutaneous days 1, 3, 5, 8, 15, 22, 29, end of study
Method: (§2) There were 4 animals per group.
Body weights as well as kidney, spleen, liver (with gall bladder), mesenteric lymph node, heart, and thymus weights were measured at the end of the study. […] Ionis SMAD7 oligonucleotides that caused any changes in organ weights outside the expected range for antisense oligonucleotides were excluded from further studies.

[5] = Hematology assays after oral gavage in CD-1 mice (Example 7); assay type: in vivo; set-up: RBC: unit not given here; details: 500 mg/kg oral gavage once daily for 4 weeks
Method: as §1
Blood obtained from all mouse groups was measured by an ADVIA2120i hematology analyzer (Siemens, USA) for measurements of the various blood cells, as well as other hematology markers. None of the Ionis SMAD7 oligonucleotides caused changes in the levels of any of the hematology markers outside the expected range for antisense oligonucleotides.

[6] = Oligonucleotide concentration in liver and colon by LC-MS/MS after subcutaneous administration in CD-1 mice (Example 6); assay type: in vivo; details: 50 mg/kg subcutaneously twice a week for 7 weeks, 48 hours after the last dose
Method: Groups of 8-9 week old male CD-1 mice were injected subcutaneously twice a week for 7 weeks with 50 mg/kg of Ionis oligonucleotides (100 mg/kg/week dose). Each group contained 4 mice. One group of male CD-1 mice was injected subcutaneously twice a week for 7 weeks with PBS. Plasma was collected for analysis on day 28.
Oligonucleotide concentrations in the liver and colon were analyzed using LC-MS/MS method.

[7] = Plasma chemistry markers after subcutaneous administration in beagle dogs (Example 8); details: 30 mg/kg subcutaneous days 1, 3, 5, 8, 15, 22, 29, plasma at day 31
[8] = Oligonucleotide concentration in tissues by LC-MS/MS after subcutaneous administration in beagle dogs (Example 8); assay type: in vivo; details: 30 mg/kg subcutaneous, 48 hours after the last dose
Method: as §2
Oligonucleotide concentrations of both ION 830025 and ION 798781 were detected in various tissues by LC-MS/MS analysis. The results are presented below, expressed as μg/g tissue. The data was collected 48 hours after the last dose.

[9] = Oligonucleotide concentrations in tissues by LC-MS/MS after oral gavage in CD-1 mice (Example 7); assay type: in vivo; details: 500 mg/kg oral gavage once daily for 4 weeks, 48 hours after last dose
Method: as §1
Oligonucleotide concentrations were detected in various tissues by LC-MS/MS analysis. The greatest concentration was found in the kidney, followed by the colon.

798781 (CGTAAGATTCACAGCA; 3-10-3 cEt gapmer, further chemistry not given here) [compound 798781]
% inhibition of Smad7 mRNA expression (compared to control), Kidney [1]: 18% | % inhibition of Smad7 mRNA expression (compared to control), Liver [1]: 28% | Levels of IL-6 ([2]; 0.0128 μM oligonucleotide): 3.4 pg/mL | Levels of IL-10 ([2]; 0.0128 μM oligonucleotide): 2.2 pg/mL | Levels of MCP-1 ([2]; 0.0128 μM oligonucleotide): 332.9 pg/mL | Levels of TNF-α ([2]; 0.0128 μM oligonucleotide): 2.6 pg/mL | Levels of IL-6 ([2]; 0.064 μM oligonucleotide): 4.9 pg/mL | Levels of IL-10 ([2]; 0.064 μM oligonucleotide): 2.0 pg/mL | Levels of MCP-1 ([2]; 0.064 μM oligonucleotide): 387.0 pg/mL | Levels of TNF-α ([2]; 0.064 μM oligonucleotide): 3.3 pg/mL | Levels of IL-6 ([2]; 0.32 μM oligonucleotide): 6.9 pg/mL | Levels of IL-10 ([2]; 0.32 μM oligonucleotide): 2.3 pg/mL | Levels of MCP-1 ([2]; 0.32 μM oligonucleotide): 483.1 pg/mL | Levels of TNF-α ([2]; 0.32 μM oligonucleotide): 3.8 pg/mL | Levels of IL-6 ([2]; 1.6 μM oligonucleotide): 12.3 pg/mL | Levels of IL-10 ([2]; 1.6 μM oligonucleotide): 3.9 pg/mL | Levels of MCP-1 ([2]; 1.6 μM oligonucleotide): 597.2 pg/mL | Levels of TNF-α ([2]; 1.6 μM oligonucleotide): 5.1 pg/mL | Levels of IL-6 ([2]; 8 μM oligonucleotide): 18.1 pg/mL | Levels of IL-10 ([2]; 8 μM oligonucleotide): 2.9 pg/mL | Levels of MCP-1 ([2]; 8 μM oligonucleotide): 582.7 pg/mL | Levels of TNF-α ([2]; 8 μM oligonucleotide): 6.5 pg/mL | Levels of IL-6 ([2]; 40 μM oligonucleotide): 20.7 pg/mL | Levels of IL-10 ([2]; 40 μM oligonucleotide): 1.4 pg/mL | Levels of MCP-1 ([2]; 40 μM oligonucleotide): 565.8 pg/mL | Levels of TNF-α ([2]; 40 μM oligonucleotide): 6.3 pg/mL | Levels of IL-6 ([2]; 200 μM oligonucleotide): 28.0 pg/mL | Levels of IL-10 ([2]; 200 μM oligonucleotide): 0.6 pg/mL | Levels of MCP-1 ([2]; 200 μM oligonucleotide): 61.3 pg/mL | Levels of TNF-α ([2]; 200 μM oligonucleotide): 4.0 pg/mL | ALT [3]: 43 IU/L | AST [3]: 73 IU/L | Albumin [3]: 3.2 g/dL | BUN [3]: 25 mg/dL | Bilirubin [3]: 0.3 mg/dL | Body weight [4]: 6661 g | Heart weight [4]: 53.4 g | Kidney weight [4]: 40.0 g | Liver weight [4]: 242.9 g | Mesenteric LN weight [4]: 7.8 g | Spleen weight [4]: 26.4 g | Thymus weight [4]: 6.0 g | Basophils [5]: 0.02 10^3/μL | Eosinophils [5]: 0.26 10^3/μL | Hematocrit [5]: 52.0% | Hemoglobin [5]: 15.2 g/dL | Lymphocytes [5]: 74.0% | MCH [5]: 15.1 pg | MCHC [5]: 29.1 g/dL | MCV [5]: 51.7 fL | Monocytes [5]: 0.18 10^3/μL | Neutrophils [5]: 18.0% | RBC [5]: 10.1 | Reticulocytes [5]: 3.0% | WBC [5]: 5.7 10^3/μL | platelets [5]: 1099 10^3/μL | Oligonucleotide concentration, Colon [6]: 63 μg/g tissue | Oligonucleotide concentration, Liver [6]: 312 μg/g tissue | ALT [7]: 32 IU/L | AST [7]: 45 IU/L | Albumin [7]: 3.0 g/dL | BUN [7]: 19.4 mg/dL | Bilirubin [7]: 0.2 mg/dL | Creatine [7]: 0.9 mg/dL | Full length oligonucleotide, Distal colon [8]: 68 µg/g | Full length oligonucleotide, Duodenum [8]: 97 µg/g | Full length oligonucleotide, Ileum [8]: 177 µg/g | Full length oligonucleotide, Kidney [8]: 3300 µg/g | Full length oligonucleotide, Liver [8]: 964 µg/g | Full length oligonucleotide, Proximal colon [8]: 73 µg/g | Oligonucleotide concentration, Colon [9]: 4.4 µg/g | Oligonucleotide concentration, Duodenum [9]: 0.7 µg/g | Oligonucleotide concentration, Ileum [9]: 2.9 µg/g | Oligonucleotide concentration, Kidney [9]: 45.2 µg/g | Oligonucleotide concentration, Liver [9]: 2.9 µg/g

790615 (CCAATGAGAATGCTTC; 3-10-3 cEt gapmer, further chemistry not given here) [compound 790615]
% inhibition of Smad7 mRNA expression (compared to control), Kidney [1]: 23% | % inhibition of Smad7 mRNA expression (compared to control), Liver [1]: 18% | Levels of IL-6 ([2]; 0.0128 μM oligonucleotide): 3.7 pg/mL | Levels of IL-10 ([2]; 0.0128 μM oligonucleotide): 1.1 pg/mL | Levels of MCP-1 ([2]; 0.0128 μM oligonucleotide): 329.5 pg/mL | Levels of TNF-α ([2]; 0.0128 μM oligonucleotide): 3.1 pg/mL | Levels of IL-6 ([2]; 0.064 μM oligonucleotide): 3.8 pg/mL | Levels of IL-10 ([2]; 0.064 μM oligonucleotide): 1.6 pg/mL | Levels of MCP-1 ([2]; 0.064 μM oligonucleotide): 281.8 pg/mL | Levels of TNF-α ([2]; 0.064 μM oligonucleotide): 2.5 pg/mL | Levels of IL-6 ([2]; 0.32 μM oligonucleotide): 6.5 pg/mL | Levels of IL-10 ([2]; 0.32 μM oligonucleotide): 2.4 pg/mL | Levels of MCP-1 ([2]; 0.32 μM oligonucleotide): 424.3 pg/mL | Levels of TNF-α ([2]; 0.32 μM oligonucleotide): 3.4 pg/mL | Levels of IL-6 ([2]; 1.6 μM oligonucleotide): 9.0 pg/mL | Levels of IL-10 ([2]; 1.6 μM oligonucleotide): 3.1 pg/mL | Levels of MCP-1 ([2]; 1.6 μM oligonucleotide): 495.8 pg/mL | Levels of TNF-α ([2]; 1.6 μM oligonucleotide): 4.2 pg/mL | Levels of IL-6 ([2]; 8 μM oligonucleotide): 10.0 pg/mL | Levels of IL-10 ([2]; 8 μM oligonucleotide): 1.9 pg/mL | Levels of MCP-1 ([2]; 8 μM oligonucleotide): 449.0 pg/mL | Levels of TNF-α ([2]; 8 μM oligonucleotide): 4.8 pg/mL | Levels of IL-6 ([2]; 40 μM oligonucleotide): 11.0 pg/mL | Levels of IL-10 ([2]; 40 μM oligonucleotide): 0.8 pg/mL | Levels of MCP-1 ([2]; 40 μM oligonucleotide): 301.9 pg/mL | Levels of TNF-α ([2]; 40 μM oligonucleotide): 4.8 pg/mL | Levels of IL-6 ([2]; 200 μM oligonucleotide): 22.9 pg/mL | Levels of IL-10 ([2]; 200 μM oligonucleotide): 0.7 pg/mL | Levels of MCP-1 ([2]; 200 μM oligonucleotide): 81.6 pg/mL | Levels of TNF-α ([2]; 200 μM oligonucleotide): 4.8 pg/mL | ALT [3]: 41 IU/L | AST [3]: 77 IU/L | Albumin [3]: 3.3 g/dL | BUN [3]: 22 mg/dL | Bilirubin [3]: 0.3 mg/dL | Body weight [4]: 7372 g | Heart weight [4]: 63.6 g | Kidney weight [4]: 44.1 g | Liver weight [4]: 253.7 g | Mesenteric LN weight [4]: 10.2 g | Spleen weight [4]: 32.3 g | Thymus weight [4]: 9.9 g | Basophils [5]: 0.01 10^3/μL | Eosinophils [5]: 0.11 10^3/μL | Hematocrit [5]: 52.2% | Hemoglobin [5]: 15.2 g/dL | Lymphocytes [5]: 78.3% | MCH [5]: 15.0 pg | MCHC [5]: 29.1 g/dL | MCV [5]: 51.6 fL | Monocytes [5]: 0.15 10^3/μL | Neutrophils [5]: 16.0% | RBC [5]: 10.1 | Reticulocytes [5]: 2.8% | WBC [5]: 5.4 10^3/μL | platelets [5]: 1033 10^3/μL | Oligonucleotide concentration, Colon [6]: 13 μg/g tissue | Oligonucleotide concentration, Liver [6]: 75 μg/g tissue | ALT [7]: 38 IU/L | AST [7]: 41 IU/L | Albumin [7]: 3.4 g/dL | BUN [7]: 15.7 mg/dL | Bilirubin [7]: 0.2 mg/dL | Creatine [7]: 0.8 mg/dL | Full length oligonucleotide, Distal colon [8]: 17 µg/g | Full length oligonucleotide, Duodenum [8]: 17 µg/g | Full length oligonucleotide, Ileum [8]: 18 µg/g | Full length oligonucleotide, Kidney [8]: 1156 µg/g | Full length oligonucleotide, Liver [8]: 220 µg/g | Full length oligonucleotide, Proximal colon [8]: 17 µg/g | Oligonucleotide concentration, Colon [9]: 2.9 µg/g | Oligonucleotide concentration, Duodenum [9]: 0.9 µg/g | Oligonucleotide concentration, Ileum [9]: 1.6 µg/g | Oligonucleotide concentration, Kidney [9]: 23.6 µg/g | Oligonucleotide concentration, Liver [9]: 2.8 µg/g
